The values below come from PubChem BioAssay (NCI).

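Following 48 hours of exposure in 96-well plates, responses at five concentrations were used to interpolate endpoints linearly. GI50 marks 50% less growth. TGI: concentration producing complete growth inhibition.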 Bounds are passed on as bounds.

Test systems include EKVX NSCLC; MDA-MB-231 breast; IGROV1 ovarian; A498 renal; UACC-62 melanoma; OVCAR-5 ovarian; HS 578T breast; SF-539 CNS; HOP-62 NSCLC; T-47D breast.
Common to all, as to test: DTP human tumour cell line panel, 48 h

The TGI is the concentration giving total growth inhibition. Lower therefore signals more potent growth arrest. Regarding `CC1OC(n2cc(F)c(=O)[nH]c2=O)CCC1O` (stereo not drawn), the TGI with EKVX NSCLC, with MDA-MB-231 breast, in the assay with IGROV1 ovarian, in the assay on A498 renal, in the assay on UACC-62 melanoma and with OVCAR-5 ovarian was over 100 µM each time. Moreover, the TGI in the assay on HS 578T breast is over 100 µM; in the assay on SF-539 CNS, 84.4 µM; with HOP-62 NSCLC, over 100 µM; in the assay with T-47D breast it was over 100 µM.
As a reminder, the GI50 is the concentration at which growth is held to half of that of the control. As for `Cn1c(N2NC(=O)C(N=Nc3ccc(S(N)(=O)=O)cc3)C2=O)nc(-c2ccco2)c(C#N)c1=O` (stereo not drawn), the GI50 in the assay on EKVX NSCLC is 35.7 µM; in the assay on MDA-MB-231 breast, 28.6 µM; in the assay on IGROV1 ovarian it was over 50 µM; with A498 renal, over 50 µM; in the assay with UACC-62 melanoma it was 39.4 µM; in the assay on OVCAR-5 ovarian, over 50 µM. Further, the GI50 in the assay on HS 578T breast was 9.85 µM; in the assay with SF-539 CNS, over 50 µM; in the assay on HOP-62 NSCLC, over 50 µM; in the assay on T-47D breast, 7.58 µM. Moreover, the TGI in the assay on EKVX NSCLC, in the assay on MDA-MB-231 breast, with IGROV1 ovarian, with A498 renal, in the assay on UACC-62 melanoma and with OVCAR-5 ovarian was over 50 µM in each case. Moreover, the TGI with HS 578T breast is 38.6 µM; in the assay on SF-539 CNS it was over 50 µM; in the assay on HOP-62 NSCLC, over 50 µM; with T-47D breast, 19.7 µM.
With `CCOC(=O)CCc1cc(=O)oc2cc(O)cc(O)c12`, the concentration for total growth inhibition (TGI) in the assay on EKVX NSCLC, with MDA-MB-231 breast, with IGROV1 ovarian, with A498 renal, in the assay with UACC-62 melanoma and in the assay with OVCAR-5 ovarian was over 100 µM throughout. For the same molecule, the TGI in the assay on HS 578T breast, in the assay with SF-539 CNS, in the assay on HOP-62 NSCLC and in the assay with T-47D breast was over 100 µM each time.
As for `CN(C)CCC(=O)N1C/C(=C/c2ccccc2)C(=O)/C(=C\c2ccccc2)C1`, the TGI came to 12.6 µM with EKVX NSCLC; 2.6 µM with MDA-MB-231 breast; 7.02 µM in the assay with IGROV1 ovarian; 6.75 µM in the assay on A498 renal; 3.77 µM with UACC-62 melanoma; 6.66 µM in the assay on OVCAR-5 ovarian. The TGI in the assay on HS 578T breast came to 20.3 µM; in the assay with SF-539 CNS it was 11.9 µM; with HOP-62 NSCLC, 16 µM; in the assay on T-47D breast it was 17.7 µM.
`C=C(CN1CCc2ccccc2C1)c1ccc(C(=O)Nc2cnccn2)cc1`: the GI50 with EKVX NSCLC is 52.8 µM; with MDA-MB-231 breast it was 27.3 µM; in the assay with A498 renal it was 33.4 µM; in the assay with UACC-62 melanoma, 44 µM; in the assay on OVCAR-5 ovarian it was over 100 µM; in the assay with HS 578T breast, 57.1 µM. In addition, the GI50 was 7.59 µM with SF-539 CNS, 27.1 µM with HOP-62 NSCLC and over 100 µM in the assay with T-47D breast. Further, the TGI in the assay on EKVX NSCLC, in the assay with MDA-MB-231 breast, with A498 renal, in the assay on UACC-62 melanoma, in the assay with OVCAR-5 ovarian and in the assay with HS 578T breast was over 100 µM throughout. The TGI with SF-539 CNS is 83.3 µM; in the assay with HOP-62 NSCLC it was over 100 µM; in the assay on T-47D breast, over 100 µM.
`C[C@]12CC[C@H](O)CC1=CC[C@@H]1[C@@H]2CC[C@]2(C)C(c3cccnc3)=CC[C@@H]12`: the GI50 is 6.08 µM in the assay on EKVX NSCLC; over 27.1 µM in the assay with MDA-MB-231 breast; over 100 µM in the assay with IGROV1 ovarian; over 27.8 µM in the assay on A498 renal; 37.4 µM with UACC-62 melanoma; over 100 µM in the assay on OVCAR-5 ovarian. Moreover, the GI50 is 7.13 µM with HS 578T breast, 8.31 µM in the assay with SF-539 CNS, 18.4 µM with HOP-62 NSCLC and over 100 µM with T-47D breast. Moreover, the TGI in the assay with EKVX NSCLC, in the assay with MDA-MB-231 breast, with IGROV1 ovarian, with A498 renal, in the assay with UACC-62 melanoma and in the assay with OVCAR-5 ovarian was over 100 µM each time. The TGI in the assay on HS 578T breast, in the assay with SF-539 CNS, in the assay on HOP-62 NSCLC and in the assay with T-47D breast was over 100 µM in each case.
For the molecule `Cc1c(C(=O)N/N=C/c2ccc(Cl)cc2)nnn1-c1ccnc2c(C(F)(F)F)cccc12`, the GI50 was 25.3 µM in the assay on EKVX NSCLC; 2.17 µM in the assay with MDA-MB-231 breast; 9.06 µM in the assay with IGROV1 ovarian; 15.9 µM in the assay with A498 renal; 10.6 µM in the assay on UACC-62 melanoma; 15.6 µM with OVCAR-5 ovarian. In addition, the GI50 was 3.62 µM with HS 578T breast, 12.6 µM in the assay on SF-539 CNS, 5.01 µM in the assay with HOP-62 NSCLC and 7.59 µM with T-47D breast. In addition, the TGI in the assay on EKVX NSCLC was over 100 µM; in the assay on MDA-MB-231 breast, 6.08 µM; in the assay with IGROV1 ovarian, 37 µM; with A498 renal, 45.1 µM; in the assay on UACC-62 melanoma, 28.4 µM; with OVCAR-5 ovarian, 36.9 µM. In addition, the TGI worked out at 12 µM in the assay with HS 578T breast, 25.8 µM in the assay on SF-539 CNS, 17.3 µM in the assay on HOP-62 NSCLC and 28.9 µM in the assay with T-47D breast.
With `O=C(NCCOCCOCCNc1cccc2c1C(=O)N(C1CCCNC1=O)C2=O)c1cc2c(o1)C(=O)c1ccccc1C2=O` (stereo not drawn), the GI50 is 2.88 µM in the assay with EKVX NSCLC; 2.72 µM with MDA-MB-231 breast; 1.99 µM in the assay on IGROV1 ovarian; 1.77 µM in the assay with A498 renal; 1.37 µM with UACC-62 melanoma; 1.77 µM in the assay on OVCAR-5 ovarian. The GI50 in the assay with HS 578T breast is 2.43 µM; in the assay with SF-539 CNS, 1.75 µM; in the assay with HOP-62 NSCLC it was 1.91 µM; in the assay on T-47D breast it was 2.53 µM. In addition, the TGI in the assay with EKVX NSCLC amounted to 10.1 µM; with MDA-MB-231 breast, 9.96 µM; with IGROV1 ovarian, 5.33 µM; in the assay on A498 renal it was 3.21 µM; in the assay with UACC-62 melanoma, 2.99 µM; with OVCAR-5 ovarian, 3.19 µM. Moreover, the TGI turned out to be 7.19 µM in the assay on HS 578T breast, 3.18 µM with SF-539 CNS, 3.37 µM in the assay with HOP-62 NSCLC and 8.81 µM with T-47D breast.
Regarding `O=C(Nc1ccc(N2CCNCC2)cc1)c1[nH]ncc1Nc1cc(Oc2ccccc2)ncn1`, the GI50 in the assay with EKVX NSCLC is 1.99 µM; in the assay with MDA-MB-231 breast, 2.03 µM; with IGROV1 ovarian, 3 µM; in the assay with A498 renal, 1.96 µM; in the assay with UACC-62 melanoma it was 2.15 µM; in the assay on OVCAR-5 ovarian it was 1.78 µM. Besides, the GI50 was 3.06 µM with HS 578T breast, 1.69 µM with SF-539 CNS, 2.24 µM in the assay with HOP-62 NSCLC and 2.46 µM in the assay with T-47D breast. In addition, the TGI in the assay on EKVX NSCLC came to 6.79 µM; in the assay with MDA-MB-231 breast, 5.72 µM; in the assay on IGROV1 ovarian, 11.3 µM; in the assay on A498 renal it was 4.82 µM; with UACC-62 melanoma, 4.96 µM; in the assay on OVCAR-5 ovarian, 4.24 µM. For the same molecule, the concentration for total growth inhibition (TGI) worked out at 14.8 µM in the assay with HS 578T breast, 3.35 µM with SF-539 CNS, 6.05 µM in the assay on HOP-62 NSCLC and 8.09 µM in the assay on T-47D breast.
